The values below come from patent US20230277582A1, “TREATMENT OF PRIMARY AND/OR SECONDARY LUNG TUMORS USING GASEOUS NITRIC OXIDE INHALATION” (Beyond Air, Inc., priority 2020, published 2023).

For one data set, the system named is CT26 colon cancer cells. Nature of the data set: In vitro NO treatment, cell viability by XTT assay, CT26. It counts as cell-based, mouse. As to the method: (§1) 10,000-20,000 cells from a cancer cell line were plated onto a 96-well plate. After an overnight incubation at 37° C. and 5% CO2, the cell culture medium was removed, and the plate was placed inside an exposure chamber made of acrylic glass, which was closed and sealed with paraffin wax tape. A gas delivery line was inserted from the top of the chamber. NO supplied from 800 ppm NO cylinders, as well as air and oxygen, were delivered to the chamber at a gas flow rate of 1 liter per minute. NO was diluted to the indicated concentration and the final oxygen concentration inside the chamber was adjusted to about 21%, to avoid cell death due to lack of oxygen. Gas exposure lasted for the indicated time period, for one to seven exposure cycles. Gas exchange during this time was permitted via an outlet hole located close to the bottom of the chamber. Cancer cells exposed to air served as a control group. Cell viability was determined using an XTT (2,3-bis-(2-methoxy-4-nitro-5-sulfophenyl)-2H-tetrazolium-5-carboxanilide) assay, whereby conversion of the XTT by viable cells to the corresponding formazan dye was quantified by spectrophotometry.
CT26 colon cancer cells (a mouse colon cancer line) were grown in 100 μl RPMI (Roswell Park Memorial Institute medium)-based tissue culture medium, supplemented with 1% streptomycin-penicillin and 10% fetal bovine serum, and plated 1 day before exposure to NO in 10 ml RPMI-based tissue culture medium; and then exposed to 400 ppm NO for 1 hour, or to 200 ppm NO for one or more cycles of 15 minutes (separated by 30 minutes of rest at 37° C.), using the procedures described hereinabove. Immediately after each exposure, 100 μl of the abovementioned supplemented RPMI-based tissue culture medium was added to each well and plated were stored at 37° C. and 5% CO2.
CT26 colon cancer cells were exposed to 1 μM of the chemotherapeutic agent 5-fluorouracil (5FU), in addition to 200 ppm NO for 30 minutes, using the procedures described hereinabove, except that after overnight incubation at 37° C. and 5% CO2, the 5FU was added to the cell culture medium, and the cells were subjected to a second overnight incubation prior to being placed within the exposure chamber, as described therein.
In another experiment, CT26 cells were exposed to 0.5-50 μM 5FU and 4 cycles of 200 ppm NO for 10 minutes (separated by 30 minutes of rest at 37° C.), using the procedures described hereinabove, except that the 5FU was added immediately after the last exposure to NO (or air), followed by incubation for about 24 hours.
(Formazan colour is commonly taken as a measure of viable cells.)

The test system of another data set is healthy rats. Nature of the data set: Safety study of intermittent NO inhalation in healthy rats. The class given is in vivo, rat. The conditions noted are these: 250-400 ppm NO, 12 days. The protocol: (§2) The effect of intermittent inhalation of NO at a concentration of 250-400 ppm was tested for 30 days in healthy dogs and for 12 days in healthy rats.
The next data set relates to LLC1 lung cancer cells. Description: In vitro NO treatment, cell viability by XTT assay, LLC1. It counts as cell-based. The note with it: Mus musculus, read-out: LLC1 cells not viable. The protocol:
as §1
Furthermore, LLC1 lung cancer cells (a mouse lung cancer line) were exposed to 200 ppm NO for 15 or 30 minutes, using the procedures described hereinabove.

In another data set the test system is S. aureus. The conditions noted are these: 200 ppm gNO; cited from earlier work.
A further data set relates to healthy dogs. Nature of the data set: Safety study of intermittent NO inhalation in healthy dogs. It counts as in vivo, dog. The conditions noted are these: 250-400 ppm NO, 30 days. As to the method:
as §2

The subject of data set [1] is human fibroblast, keratinocyte, endothelial, monocyte and macrophage cells. The note with it: 200 ppm gNO; cited from earlier work.

Like-named read-outs stand apart in the source and are kept apart here.

Take `O=c1[nH]cc(F)c(=O)[nH]1` [5FU, 5-fluorouracil]: the “effect on CT26 cells (viability)” value with CT26 colon cancer cells (1 μM 5FU alone, overnight incubation (FIG. 4)) is given as “little effect”.
What is called viability is a per cent measure of how many cells are alive, often set against a control. For the compound `[N]=O` [NO, nitric oxide], the “macroscopic or microscopic effect of NO inhalation” value in the data set on healthy rats and with healthy dogs was “No macroscopic or microscopic effect” throughout. Also, the cytotoxicity at 200 ppm amounted to 41% in the data set with LLC1 lung cancer cells (LLC1, 0.25 h, 200 ppm NO for 15 minutes (FIG. 3)); 65% in the data set with LLC1 lung cancer cells (LLC1, 0.5 h, 200 ppm NO for 30 minutes (FIG. 3)); 51% in the data set with CT26 colon cancer cells (Mus musculus, CT26, 0.5 h, read-out: reduction of CT26 cell viability). Besides, the “S. aureus burden in rabbit wound model” value with S. aureus was “reduced S. aureus burden”. Further, in data set [1], the “cytotoxicity to human cells in culture” value was “without being cytotoxic”. Also, the CT26 cell viability result in the data set on CT26 colon cancer cells (400 ppm NO for 1 hour (FIG. 1)) was “not viable”; in the data set with CT26 colon cancer cells (seven cycles of 15 minutes, 200 ppm NO, compared to four cycles (FIG. 2C)) it was “did not produce an additional reduction in viability”; with CT26 colon cancer cells (single 15 minute exposure to 200 ppm NO (FIG. 2A)), “little effect”. The viability at 200 ppm in the data set on CT26 colon cancer cells (Mus musculus, CT26, read-out: CT26 cell viability (decreased to)) is about 40%.
